Source: patent US20130029962A1, “Substituted Heteroaromatic Pyrazole-Containing Carboxamide and Urea Compounds as Vanilloid Receptor Ligands” (Gruenenthal GmbH, priority 2011, published 2013)

biological target: T1, vanilloid receptor 1 (VR1/TRPV1 receptor) (Homo sapiens, UniProt Q8NER1); assay: Functional testing on the vanilloid receptor 1 (VR1/TRPV1): FLIPR Ca2+ influx assay, displacement of capsaicin; format: cell-based, human being; set-up: key to mode of action at VR1/TRPV1 (AG, pAG, NE), Cap: AG=agonist; NE=no effect; pAG=partial agonist; details: 5 μM compound; capsaicin (Cap); human being
T1 construct: expressed in transfected cells; host or cells: CHO K1
Method: Furthermore, preference may be given to compounds according to the invention that cause a 50 percent displacement of capsaicin, which is present at a concentration of 100 nM, in a FLIPR assay with CHO K1 cells which were transfected with the human VR1 gene at a concentration of less than 2,000 nM, preferably less than 1,000 nM, particularly preferably less than 300 nM, most particularly preferably less than 100 nM, even more preferably less than 75 nM, additionally preferably less than 50 nM, most preferably less than 10 nM.
In the process, the Ca^2+ influx is quantified in the FLIPR assay with the aid of a Ca^2+-sensitive dye (type Fluo-4, Molecular Probes Europe BV, Leiden, the Netherlands) in a fluorescent imaging plate reader (FLIPR, Molecular Devices, Sunnyvale, USA), as described hereinafter. […]
The number of cells in the suspension is set to 3×10^5 per mL and 150 μL of this suspension are in each case introduced into a recess in the cell culture plates coated as described hereinbefore. In the incubator the plates are left for two to three days at 37° C., 5% by volume of CO2 and 95% relative humidity. Subsequently, the cells are loaded with 2 μM of Fluo-4 and 0.01% by volume of Pluronic F127 (Molecular Probes Europe BV, Leiden, the Netherlands) in HBSS buffer (Hank's buffered saline solution, Gibco Invitrogen GmbH, Karlsruhe, Germany) for 30 min at 37° C., washed 3 times with HBSS buffer and after further incubation for 15 minutes at room temperature used for Ca^2+ measurement in a FLIPR assay. The Ca^2+-dependent fluorescence is in this case measured before and after the addition of substances (λex=488 nm, λem=540 nm). Quantification is carried out by measuring the highest fluorescence intensity (FC, fluorescence counts) over time.
The FLIPR protocol consists of 2 substance additions. First the compounds to be tested (10 μM) are pipetted onto the cells and the Ca^2+ influx is compared with the control (capsaicin 10 μM). This provides the result in % activation based on the Ca^2+ signal after the addition of 10 μM of capsaicin (CP). After 5 minutes' incubation, 100 nM of capsaicin are applied and the Ca^2+ influx is also determined. Desensitising agonists and antagonists lead to suppression of the Ca^2+ influx. The % inhibition is calculated compared to the maximum achievable inhibition with 10 μM of capsazepine. Triple analyses (n=3) are carried out and repeated in at least 3 independent experiments (N=4).
Starting from the percentage displacement caused by different concentrations of the compounds to be tested of general formula I, IC50 inhibitory concentrations which cause a 50-percent displacement of capsaicin were calculated. Ki values for the test substances were obtained by conversion by means of the Cheng-Prusoff equation (Cheng, Prusoff; Biochem. Pharmacol. 22, 3099-3108, 1973).
The affinity of the compounds according to the invention for the vanilloid receptor 1 (VR1/TRPV1 receptor) was determined as described above (pharmacological method I).

T1 sequence (Q8NER1 whole entry): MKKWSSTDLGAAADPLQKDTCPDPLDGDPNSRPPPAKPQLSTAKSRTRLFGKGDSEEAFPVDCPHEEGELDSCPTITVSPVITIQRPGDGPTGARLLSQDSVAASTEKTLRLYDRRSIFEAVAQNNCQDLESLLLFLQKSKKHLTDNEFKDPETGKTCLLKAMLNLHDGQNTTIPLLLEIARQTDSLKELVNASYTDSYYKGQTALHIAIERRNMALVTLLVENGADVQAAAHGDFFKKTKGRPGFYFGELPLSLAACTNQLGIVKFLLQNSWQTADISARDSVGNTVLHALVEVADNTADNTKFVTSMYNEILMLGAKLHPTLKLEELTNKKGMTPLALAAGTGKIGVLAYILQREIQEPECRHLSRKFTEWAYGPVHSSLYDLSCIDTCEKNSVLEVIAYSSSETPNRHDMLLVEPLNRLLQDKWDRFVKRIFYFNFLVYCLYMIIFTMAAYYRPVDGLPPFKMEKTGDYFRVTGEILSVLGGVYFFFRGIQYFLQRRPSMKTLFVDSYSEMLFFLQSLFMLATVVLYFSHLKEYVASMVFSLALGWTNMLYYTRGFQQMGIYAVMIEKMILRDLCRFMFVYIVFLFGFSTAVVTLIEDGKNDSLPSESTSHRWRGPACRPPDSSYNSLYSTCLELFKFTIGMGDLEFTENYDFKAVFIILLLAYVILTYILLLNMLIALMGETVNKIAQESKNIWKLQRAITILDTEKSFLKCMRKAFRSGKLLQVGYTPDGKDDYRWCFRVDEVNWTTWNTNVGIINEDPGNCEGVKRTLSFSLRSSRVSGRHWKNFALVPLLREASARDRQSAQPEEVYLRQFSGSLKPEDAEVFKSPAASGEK

Row | SMILES | inhibition (as a percentage) at the concentration after @, Cap
1 | CC(C(=O)NCc1cc(C(F)(F)F)nn1-c1cccc(Cl)c1)c1ccc(C(=O)Nc2ccccc2)nc1 (stereo not drawn) [Example 57] | 60%@5 μM

same assay, conditions: 5 μM compound; capsaicin (Cap); human being; read-out: inhibition (as a percentage) at the concentration after @, Cap

Row | SMILES | inhibition at 5 µM
2 | O=C(NCc1cc(C(F)(F)F)nn1-c1cccc(F)c1)Nc1ccc(CO)nc1 [Example 33, 1-((1-(3-fluorophenyl)-3-(trifluoromethyl)-1H-pyrazol-5-yl)methyl)-3-(6-(hydroxymethyl)pyridin-3-yl)urea] | 41%
3 | CN(CCO)Cc1ccc(NC(=O)NCc2cc(C(F)(F)F)nn2-c2cccc(Cl)c2)cn1 [Example 135, 1-((1-(3-chlorophenyl)-3-(trifluoromethyl)-1H-pyrazol-5-yl)methyl)-3-(6-(((2-hydroxyethyl)(methyl)amino)methyl)pyridin-3-yl)urea] | 22%
4 | O=C(Cc1ccccn1)NCc1cc(C(F)(F)F)nn1-c1cccc(Cl)c1 [Example 1, N-((1-(3-chlorophenyl)-3-(trifluoromethyl)-1H-pyrazol-5-yl)methyl)-2-(pyridin-2-yl)acetamide] | 31%
5 | CC(C(=O)NCc1cc(C(C)(C)C)nn1-c1cccc(Cl)c1)c1ccc(C(N)=O)nc1 (stereo not drawn) [Example 56, 5-(1-((3-tert-butyl-1-(3-chlorophenyl)-1H-pyrazol-5-yl)methylamino)-1-oxopropan-2-yl)picolinamide] | 77%
6 | CS(=O)(=O)Nc1ccc(NC(=O)NCc2cc(C(F)(F)F)nn2-c2cccc(Cl)c2)cn1 [Example 101, N-(5-(3-((1-(3-chlorophenyl)-3-(trifluoromethyl)-1H-pyrazol-5-yl)methyl)ureido)pyridin-2-yl)methanesulfonamide] | 30%
7 | O=C(NCc1cc(C(F)(F)F)nn1-c1cccc(Cl)c1)Nc1ccc(CCO)nc1 [Example 52, 1-((1-(3-chlorophenyl)-3-(trifluoromethyl)-1H-pyrazol-5-yl)methyl)-3-(6-(2-hydroxyethyl)pyridin-3-yl)urea] | 45%
8 | CC(C(=O)NCc1cc(C(C)(C)C)nn1-c1cccc(Cl)c1)c1ccccn1 (stereo not drawn) [Example 2, N-((3-tert-butyl-1-(3-chlorophenyl)-1H-pyrazol-5-yl)methyl)-2-(pyridin-2-yl)propanamide] | 89%
9 | O=C(Cc1cccnc1)NCc1cc(C(F)(F)F)nn1-c1cccc(Cl)c1 [Example 7, N-((1-(3-chlorophenyl)-3-(trifluoromethyl)-1H-pyrazol-5-yl)methyl)-2-(pyridin-3-yl)acetamide] | 51%

same assay, conditions: capsaicin (Cap) as stimulus; Ki from IC50 by Cheng-Prusoff; read-out: (f) Ki (human being) [nM] Cap

Row | SMILES | Ki
10 | Cc1nc(CCO)ccc1NC(=O)NCc1cc(C(F)(F)F)nn1-c1cccc(Cl)c1 [Example 143, 1-((1-(3-chlorophenyl)-3-(trifluoromethyl)-1H-pyrazol-5-yl)methyl)-3-(6-(2-hydroxyethyl)-2-methylpyridin-3-yl)urea] | 84 nM
11 | O=C(NCc1cc(C(F)(F)F)nn1-c1cccc(Cl)c1)Nc1ccc(N2CC(O)C2)nc1 [Example 111, 1-((1-(3-chlorophenyl)-3-(trifluoromethyl)-1H-pyrazol-5-yl)methyl)-3-(6-(3-hydroxyazetidin-1-yl)pyridin-3-yl)urea] | 38 nM
12 | CC(C(=O)NCc1cc(C(F)(F)F)nn1-c1cccc(Cl)c1)c1ccc(NC(=O)c2ccccc2)nc1 (stereo not drawn) [Example 92, N-(5-(1-((1-(3-chlorophenyl)-3-(trifluoromethyl)-1H-pyrazol-5-yl)methylamino)-1-oxopropan-2-yl)pyridin-2-yl)benzamide] | 26 nM
13 | CC(C(=O)NCc1cc(C(F)(F)F)nn1-c1cccc(Cl)c1)c1cnc(NS(C)(=O)=O)c(F)c1 (stereo not drawn) [Example 103, N-((1-(3-chlorophenyl)-3-(trifluoromethyl)-1H-pyrazol-5-yl)methyl)-2-(5-fluoro-6-(methylsulfonamido)pyridin-3-yl)propanamide] | 12 nM
14 | Cc1cncc(NC(=O)NCc2cc(C(F)(F)F)nn2-c2cccc(Cl)c2)c1 [Example 137, 1-((1-(3-chlorophenyl)-3-(trifluoromethyl)-1H-pyrazol-5-yl)methyl)-3-(5-methylpyridin-3-yl)urea] | 55 nM
15 | O=C(NCc1cc(C(F)(F)F)nn1-c1cc(F)cc(F)c1)Nc1ccc(NCCO)nc1 [Example 155, 1-((1-(3,5-difluorophenyl)-3-(trifluoromethyl)-1H-pyrazol-5-yl)methyl)-3-(6-(2-hydroxyethylamino)pyridin-3-yl)urea] | 35 nM
16 | CC(C(=O)NCc1cc(C(F)(F)F)nn1-c1cccc(Cl)c1)c1ccc(C(N)=O)nc1 (stereo not drawn) [Example 55, 5-(1-((1-(3-chlorophenyl)-3-(trifluoromethyl)-1H-pyrazol-5-yl)methylamino)-1-oxopropan-2-yl)picolinamide] | 23 nM
17 | O=C(NCc1cc(C(F)(F)F)nn1-c1ccc(F)c(Cl)c1)Nc1ccc(N2CC(O)C2)nc1 [Example 113, 1-((1-(3-chloro-4-fluorophenyl)-3-(trifluoromethyl)-1H-pyrazol-5-yl)methyl)-3-(6-(3-hydroxyazetidin-1-yl)pyridin-3-yl)urea] | 80 nM
18 | Cc1cc(-n2nc(C(F)(F)F)cc2CNC(=O)Nc2ccc(NCCO)nc2)ccc1Cl [Example 156, 1-((1-(4-chloro-3-methylphenyl)-3-(trifluoromethyl)-1H-pyrazol-5-yl)methyl)-3-(6-(2-hydroxyethylamino)pyridin-3-yl)urea] | 29 nM
19 | Cc1cccc(-n2nc(C(F)(F)F)cc2CNC(=O)Nc2ccc(CO)nc2)c1 [Example 36, 1-(6-(hydroxymethyl)pyridin-3-yl)-3-((1-m-tolyl-3-(trifluoromethyl)-1H-pyrazol-5-yl)methyl)urea] | 101 nM
20 | O=C(NCc1cc(C(F)(F)F)nn1-c1cccc(F)c1)Nc1ccc(N2CC(O)C2)nc1 [Example 112, 1-((1-(3-fluorophenyl)-3-(trifluoromethyl)-1H-pyrazol-5-yl)methyl)-3-(6-(3-hydroxyazetidin-1-yl)pyridin-3-yl)urea] | 48 nM
21 | CC(C(=O)NCc1cc(C(C)(C)C)nn1-c1cccc(Cl)c1)c1cnc(C(=O)Nc2ccc(F)cc2)nc1 (stereo not drawn) [Example 66, 5-(1-((3-tert-butyl-1-(3-chlorophenyl)-1H-pyrazol-5-yl)methylamino)-1-oxopropan-2-yl)-N-(4-fluorophenyl)pyrimidine-2-carboxamide] | 3 nM
22 | CC(C(=O)NCc1cc(C(F)(F)F)nn1-c1cccc(Cl)c1)c1ccc(NS(C)(=O)=O)nc1 (stereo not drawn) [Example 99, N-((1-(3-chlorophenyl)-3-(trifluoromethyl)-1H-pyrazol-5-yl)methyl)-2-(6-(methylsulfonamido)pyridin-3-yl)propanamide] | 11 nM
23 | CC(C(=O)NCc1cc(C(F)(F)F)nn1-c1cccc(F)c1)c1ccc(NS(C)(=O)=O)nc1 (stereo not drawn) [Example 100, N-((1-(3-fluorophenyl)-3-(trifluoromethyl)-1H-pyrazol-5-yl)methyl)-2-(6-(methylsulfonamido)pyridin-3-yl)propanamide] | 37 nM
24 | O=C(NCc1cc(C(F)(F)F)nn1-c1cccc(Cl)c1)Nc1ccc(NCCO)nc1 [Example 71, 1-((1-(3-chlorophenyl)-3-(trifluoromethyl)-1H-pyrazol-5-yl)methyl)-3-(6-(2-hydroxyethylamino)pyridin-3-yl)urea] | 8 nM

same assay, conditions: capsaicin (Cap); human being

Row | SMILES | mode of action at VR1/TRPV1 (AG, pAG, NE), Cap
25 | CC(C(=O)NCc1cc(C(C)(C)C)nn1-c1cccc(Cl)c1)c1ccc(C(N)=O)nc1 (stereo not drawn) [Example 56, 5-(1-((3-tert-butyl-1-(3-chlorophenyl)-1H-pyrazol-5-yl)methylamino)-1-oxopropan-2-yl)picolinamide] | AG
26 | CC(C)(C)c1cc(CNC(=O)Cc2cnccn2)n(-c2cccc(Cl)c2)n1 [Example 14, 1N-((3-tert-butyl-1-(3-chlorophenyl)-1H-pyrazol-5-yl)methyl)-2-(pyrazin-2-yl)acetamide] | pAG
27 | CC(C(=O)NCc1cc(C(C)(C)C)nn1-c1cccc(Cl)c1)c1ccccn1 (stereo not drawn) [Example 2, N-((3-tert-butyl-1-(3-chlorophenyl)-1H-pyrazol-5-yl)methyl)-2-(pyridin-2-yl)propanamide] | AG
